The term MIC99 denotes the lowest concentration that inhibits either 99% of growth or 99% of the strains tested, depending on the study. Lower therefore signals greater potency.

Values after ≈ are worked out from the molar mass of the structure shown.

This note sets out measurements from ChEMBL document CHEMBL3217538, “Antimycobacterial activity of spirooxindolo-pyrrolidine, pyrrolizine and pyrrolothiazole hybrids obtained by a three-component regio- and stereoselective 1,3-dipolar cycloaddition” (2011).

Assay [1] has as its system Mycobacterium tuberculosis. Put plainly: Antimycobacterial activity against Mycobacterium tuberculosis H37Rv by agar dilution method. The assay is classed as functional. On the technique in general: Agar dilution tests growth on a series of plates holding different concentrations.
Assay [2] relates to Mycobacterium tuberculosis. As to the kind of experiment: Ratio of pyrazinamide MIC99 to compound MIC99 for Mycobacterium tuberculosis H37Rv. It is filed as functional.

As for `COc1ccc(C2C([N+](=O)[O-])C(c3ccccc3)N[C@@]23C(=O)Nc2ccccc23)cc1` (stereo partly drawn), in assay [1], the MIC99 was above 60.2 µM.

On to `O=C1Nc2ccccc2[C@]12NC(c1ccccc1)C([N+](=O)[O-])C2c1ccc(Cl)cc1` (stereo partly drawn), for which the MIC99 in assay [1] was determined as 29.8 µM (≈ 12.5 µg/mL). Also, in assay [2], the Ratio is on record as 1.7.

In assay [1], `O=C1Nc2ccccc2[C@]12NC(c1ccccc1)C([N+](=O)[O-])C2c1cccc([N+](=O)[O-])c1` (stereo partly drawn) displayed an MIC99 of 29 µM (≈ 12.5 µg/mL). In addition, in assay [2], the Ratio worked out at 1.75.

With `O=C1Nc2ccccc2[C@]12NC(c1ccccc1)C([N+](=O)[O-])C2c1cccc(Cl)c1` (stereo partly drawn), the MIC99 in assay [1] was 14.9 µM (≈ 6.26 µg/mL). Moreover, the Ratio in assay [2] was 3.4.

In assay [1], `O=C1Nc2ccccc2[C@]12NC(c1ccccc1)C([N+](=O)[O-])C2c1ccc(F)cc1` (stereo partly drawn) showed an MIC99 of 31 µM (≈ 12.5 µg/mL). Moreover, the Ratio in assay [2] worked out at 1.6.

In turn, `O=C1Nc2ccccc2[C@]12NC(c1ccccc1)C([N+](=O)[O-])C2c1ccccc1` (stereo partly drawn) registered an MIC99 in assay [1] above 64.9 µM.

`Cc1ccc(C2C([N+](=O)[O-])C(c3ccccc3)N[C@@]23C(=O)Nc2ccccc23)cc1` (stereo partly drawn) returned an MIC99 in assay [1] above 62.6 µM.

For `O=C1Nc2ccccc2[C@]12NC(c1ccccc1)C([N+](=O)[O-])C2c1ccc(Br)cc1` (stereo partly drawn), the MIC99 in assay [1] was 26.9 µM (≈ 12.5 µg/mL). In assay [2], the Ratio was found to be 1.9.

In turn, `COc1ccc(OC)c(C2C([N+](=O)[O-])C(c3ccccc3)N[C@@]23C(=O)Nc2ccccc23)c1` (stereo partly drawn) had an MIC99 in assay [1] above 56.1 µM.

The compound `COc1ccc(C2C([N+](=O)[O-])C3CCCN3[C@@]23C(=O)Nc2ccccc23)cc1` (stereo partly drawn) gave an MIC99 in assay [1] of 65.9 µM (≈ 25 µg/mL).

Consider `O=C1Nc2ccccc2[C@@]12C(c1ccc(Cl)cc1)C([N+](=O)[O-])C1CCCN12` (stereo partly drawn), for which the MIC99 in assay [1] stood at 32.6 µM (≈ 12.5 µg/mL). Moreover, the Ratio in assay [2] was determined as 1.6.

The compound `O=C1Nc2ccccc2[C@@]12C(c1cccc([N+](=O)[O-])c1)C([N+](=O)[O-])C1CCCN12` (stereo partly drawn) came in with an MIC99 in assay [1] of 63.4 µM (≈ 25 µg/mL).

In assay [1], `O=C1Nc2ccccc2[C@@]12C(c1cccc(Cl)c1)C([N+](=O)[O-])C1CCCN12` (stereo partly drawn) displayed an MIC99 of 32.6 µM (≈ 12.5 µg/mL). For the same compound, the Ratio in assay [2] is 1.6.

`O=C1Nc2ccccc2[C@@]12C(c1ccc(F)cc1)C([N+](=O)[O-])C1CCCN12` (stereo partly drawn): the MIC99 in assay [1] was 68.1 µM (≈ 25 µg/mL).

For the compound `O=C1Nc2ccccc2[C@@]12C(c1ccccc1)C([N+](=O)[O-])C1CCCN12` (stereo partly drawn), in assay [1], the MIC99 was found to be 71.6 µM (≈ 25 µg/mL).

The compound `Cc1ccc(C2C([N+](=O)[O-])C3CCCN3[C@@]23C(=O)Nc2ccccc23)cc1` (stereo partly drawn) returned an MIC99 in assay [1] of 68.8 µM (≈ 25 µg/mL).

For the compound `O=C1Nc2ccccc2[C@@]12C(c1ccc(Br)cc1)C([N+](=O)[O-])C1CCCN12` (stereo partly drawn), the MIC99 in assay [1] was 58.4 µM (≈ 25 µg/mL).

Turning to `COc1ccc(OC)c(C2C([N+](=O)[O-])C3CCCN3[C@@]23C(=O)Nc2ccccc23)c1` (stereo partly drawn), the MIC99 in assay [1] is above 61.1 µM.

`COc1cc(C2C([N+](=O)[O-])C3CCCN3[C@@]23C(=O)Nc2ccccc23)cc(OC)c1OC` (stereo partly drawn) yielded an MIC99 in assay [1] above 56.9 µM.

In the case of `COc1ccc(C2C([N+](=O)[O-])C3CSCN3[C@@]23C(=O)Nc2ccccc23)cc1` (stereo partly drawn), the MIC99 in assay [1] was 62.9 µM (≈ 25 µg/mL).

For the compound `O=C1Nc2ccccc2[C@@]12C(c1ccc(Cl)cc1)C([N+](=O)[O-])C1CSCN12` (stereo partly drawn), in assay [1], the MIC99 turned out to be 15.5 µM (≈ 6.23 µg/mL). For the same compound, the Ratio in assay [2] is 3.3.

Regarding `O=C1Nc2ccccc2[C@@]12C(c1cccc([N+](=O)[O-])c1)C([N+](=O)[O-])C1CSCN12` (stereo partly drawn), the MIC99 in assay [1] came out at 7.6 µM (≈ 3.13 µg/mL). In addition, the Ratio in assay [2] is on record as 6.7.

`O=C1Nc2ccccc2[C@@]12C(c1cccc(Cl)c1)C([N+](=O)[O-])C1CSCN12` (stereo partly drawn) registered an MIC99 in assay [1] of 7.8 µM (≈ 3.13 µg/mL). Also, the Ratio in assay [2] was 6.5.

Compound `O=C1Nc2ccccc2[C@@]12C(c1ccc(F)cc1)C([N+](=O)[O-])C1CSCN12` (stereo partly drawn) displayed an MIC99 in assay [1] of 8.2 µM (≈ 3.16 µg/mL). Also, in assay [2], the Ratio worked out at 6.2.

In assay [1], `CC[C@@H](CO)NCCN[C@@H](CC)CO` [ETHAMBUTOL] displayed an MIC99 of 7.6 µM (≈ 1.55 µg/mL).

On to `NNC(=O)c1ccncc1` [ISONIAZID], for which the MIC99 in assay [1] came to 0.4 µM (≈ 0.0549 µg/mL).

`NC(=O)c1cnccn1` [PYRAZINAMIDE]: the MIC99 in assay [1] stood at 50.1 µM (≈ 6.17 µg/mL).
